Laboratory results from patent publication US10988477B2 (Merck Patent GmbH, priority 2018, dated 2021).
Read-outs that look alike come from different tables or passages of the source.

Columns and labels:
GCN2 kinase = GCN2 kinase (Homo sapiens, UniProt Q9P2K8); assay: GCN2 enzyme inhibition assay (Transcreener ADP2 fluorescence polarization); assay type: biochemical; settings: 280 μM ATP
Outline: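 4 nM GCN2 + 200 μM (RS)7 + compound (0–8 μM), 10 min preinc.; start with ATP (280 μM final); 1 h, 25 °C; pH 7.5 Tris/NaCl/MgCl2/DTT; ADP FP readout; IC50, Ki(app) via tight-binding fit.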

[1] = biological target: intracellular GCN2 (phosphorylation of the GCN2 substrate eIF2α) (Homo sapiens, UniProt Q9P2K8); assay: GCN2 cellular inhibition assay (AlphaScreen SureFire P-eIF2α Ser51, borrelidin-treated U2OS cells); assay type: cell-based
Sequence of intracellular GCN2 (phosphorylation of the GCN2 substrate eIF2α) (Q9P2K8 whole entry): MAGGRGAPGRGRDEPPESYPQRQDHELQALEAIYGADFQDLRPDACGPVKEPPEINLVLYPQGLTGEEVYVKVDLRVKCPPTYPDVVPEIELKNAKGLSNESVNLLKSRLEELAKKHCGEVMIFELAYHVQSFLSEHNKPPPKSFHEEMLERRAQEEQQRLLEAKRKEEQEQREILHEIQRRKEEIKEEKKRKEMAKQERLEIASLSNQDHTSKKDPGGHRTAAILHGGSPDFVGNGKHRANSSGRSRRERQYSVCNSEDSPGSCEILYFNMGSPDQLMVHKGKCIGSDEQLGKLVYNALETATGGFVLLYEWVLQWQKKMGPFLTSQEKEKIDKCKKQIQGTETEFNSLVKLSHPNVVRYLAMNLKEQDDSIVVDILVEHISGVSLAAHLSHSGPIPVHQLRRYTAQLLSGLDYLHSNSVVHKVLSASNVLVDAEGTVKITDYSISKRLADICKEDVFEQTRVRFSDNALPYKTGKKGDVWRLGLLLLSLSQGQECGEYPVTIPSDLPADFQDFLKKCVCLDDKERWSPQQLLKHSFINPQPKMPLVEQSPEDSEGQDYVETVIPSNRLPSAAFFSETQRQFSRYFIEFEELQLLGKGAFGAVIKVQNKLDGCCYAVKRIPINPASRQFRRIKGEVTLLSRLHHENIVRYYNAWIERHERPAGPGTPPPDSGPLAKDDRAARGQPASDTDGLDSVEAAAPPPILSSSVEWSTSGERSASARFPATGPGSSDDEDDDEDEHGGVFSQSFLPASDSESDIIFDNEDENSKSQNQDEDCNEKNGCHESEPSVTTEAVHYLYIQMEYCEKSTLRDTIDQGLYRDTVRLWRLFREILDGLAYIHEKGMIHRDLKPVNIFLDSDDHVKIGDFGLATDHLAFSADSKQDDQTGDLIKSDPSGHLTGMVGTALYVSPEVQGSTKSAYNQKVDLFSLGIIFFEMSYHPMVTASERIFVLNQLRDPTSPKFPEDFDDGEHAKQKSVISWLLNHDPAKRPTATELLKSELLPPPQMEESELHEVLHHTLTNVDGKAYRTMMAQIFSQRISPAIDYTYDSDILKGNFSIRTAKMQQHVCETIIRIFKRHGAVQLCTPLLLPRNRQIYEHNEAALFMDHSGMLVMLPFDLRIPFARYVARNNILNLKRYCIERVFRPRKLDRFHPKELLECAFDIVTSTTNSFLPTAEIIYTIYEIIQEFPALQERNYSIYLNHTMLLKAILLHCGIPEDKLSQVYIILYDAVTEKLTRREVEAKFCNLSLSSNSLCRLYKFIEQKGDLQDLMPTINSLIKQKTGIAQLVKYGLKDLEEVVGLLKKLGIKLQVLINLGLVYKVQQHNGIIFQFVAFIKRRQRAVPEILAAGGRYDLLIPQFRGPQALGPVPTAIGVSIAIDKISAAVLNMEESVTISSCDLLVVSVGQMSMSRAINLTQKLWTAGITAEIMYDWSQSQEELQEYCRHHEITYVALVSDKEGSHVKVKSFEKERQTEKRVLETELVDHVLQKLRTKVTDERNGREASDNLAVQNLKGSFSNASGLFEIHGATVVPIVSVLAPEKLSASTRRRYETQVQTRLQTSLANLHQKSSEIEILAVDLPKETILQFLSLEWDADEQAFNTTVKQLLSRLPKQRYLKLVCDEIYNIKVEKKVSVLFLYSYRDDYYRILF
Outline: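 First, U2OS cells are plated and left overnight at 37 °C. Next, compounds (from 40 μM final, 4-fold steps) and 10 μM borrelidin are added for 1 h, cells lysed, and phospho-Ser51 eIF2α detected by AlphaScreen bead sandwich. Inhibition is computed versus borrelidin-only wells.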

[2] = compounds of Formula II, 4 nM GCN2 kinase
[3] = compounds of Formula II, biomarker assay, phosphorylated eIF2α Ser51 in borrelidin-treated U2OS cells
[4] = Enzyme activity for compounds of Formula IV, Ki(app), 25° C.
[5] = compounds of Formula IV, biomarker assay, phosphorylated eIF2α Ser51 in borrelidin-treated U2OS cells

Sequence of GCN2 kinase (Q9P2K8 whole entry): as above

Structure (SMILES) | Ki (GCN2 kinase; [2]) [nM] | IC50 [1, 3] [nM] | Ki (GCN2 kinase; [4]) [nM] | IC50 [1, 5] [nM] | also measured
CC1CC(C(N)=O)C(C)N(c2cc(-c3cnc4ccc(C(F)(F)F)nn34)ncn2)C1 (racemic) [II-720, 2,5-Dimethyl-1-[6-[6-(trifluoromethyl)imidazo[1,2-b]pyridazin-3-yl]pyrimidin-4-yl]piperidine-3-carboxamide] | 10 to 1000 | 500 to 5000 | – | – | –
FC(F)c1cn2c(-c3nccc(N4CCC(c5cc[nH]n5)C4)n3)cnc2cn1 (stereo not shown) [IV-64, 3-(4-(3-(1H-Pyrazol-3-yl)pyrrolidin-1-yl)pyrimidin-2-yl)-6-(difluoromethyl)imidazo[1,2-a]pyrazine] | – | – | 100 to 1000 | > 5000 | –
FC(F)c1ccc2ncc(-c3cc(N4CCCC(Cn5cncn5)C4)ncn3)n2n1 (stereo not shown) [II-339, 3-(6-(3-((1H-1,2,4-Triazol-1-yl)methyl)piperidin-1-yl)pyrimidin-4-yl)-6-(difluoromethyl)imidazo[1,2-b]pyridazine] | 10 to 1000 | 500 to 5000 | – | – | –
C[C@@H]1C[C@H](N=S(C)(C)=O)CN(c2ccnc(-c3cnc4cnc(C(F)F)cn34)n2)C1 [IV-772, (((3S,5R)-1-(2-(6-(difluoromethyl)imidazo[1,2-a]pyrazin-3-yl)pyrimidin-4-yl)-5-methylpiperidin-3-yl)imino)dimethyl-16-sulfanone] | – | – | – | 500 to 5000 | IC50 (GCN2 kinase; compounds of Formula IV, 4 nM GCN2 kinase): 10 to 1000 nM
CCN1CCN(c2cc(-c3cnc4ccc(C(F)F)nn34)ncn2)C(C)C1CNS(C)(=O)=O (single isomer, unassigned) [II-543, N-((4-(6-(6-(difluoromethyl)imidazo[1,2-b]pyridazin-3-yl)pyrimidin-4-yl)-1-ethyl-3-methylpiperazin-2-yl)methyl)methanesulfonamide] | 10 to 1000 | 500 to 5000 | – | – | –
FC(F)(F)c1cn2c(-c3nccc(N4CCOCC4)n3)cnc2cn1 [IV-426, 4-(2-(6-(Trifluoromethyl)imidazo[1,2-a]pyrazin-3-yl)pyrimidin-4-yl)morpholine] | – | – | 100 to 1000 | > 5000 | –
CC1CN(c2cc(-c3cnc4ccc(C(F)F)nn34)ncn2)CC(CNS(C)(=O)=O)C1=O (stereo not shown) [II-525, N-((1-(6-(6-(Difluoromethyl)imidazo[1,2-b]pyridazin-3-yl)pyrimidin-4-yl)-5-methyl-4-oxopiperidin-3-yl)methyl)methanesulfonamide] | < 10 | < 500 | – | – | –
CC1CC(P(C)(C)=O)CN(c2cc(-c3cnc4ccc(C(F)F)nn34)ncn2)C1 (stereo not shown) [II-710, 6-(Difluoromethyl)-3-[6-(3-dimethylphosphoryl-5-methyl-1-piperidyl)pyrimidin-4-yl]imidazo[1,2-b]pyridazine] | 10 to 1000 | 500 to 5000 | – | – | –
CC1NCCN(c2cc(-c3cnc4ccc(C(F)F)nn34)ncn2)C1CNS(C)(=O)=O (stereo not shown) [II-336, N-((1-(6-(6-(Difluoromethyl)imidazo[1,2-b]pyridazin-3-yl)pyrimidin-4-yl)-3-methylpiperazin-2-yl)methyl)methanesulfonamide] | > 1000 | > 5000 | – | – | –
CC1C(CO)OCCN1c1cc(-c2cnc3ccc(C(F)F)nn23)ncn1 (stereo not shown) [II-341, (4-(6-(6-(Difluoromethyl)imidazo[1,2-b]pyridazin-3-yl)pyrimidin-4-yl)-3-methylmorpholin-2-yl)methanol] | 10 to 1000 | > 5000 | – | – | –
CC1C(CNS(C)(=O)=O)CN(c2cc(-c3cnc4ccc(C(F)F)nn34)ncn2)CC1(F)F (stereo not shown) [II-382, N-((1-(6-(6-(Difluoromethyl)imidazo[1,2-b]pyridazin-3-yl)pyrimidin-4-yl)-5,5-difluoro-4-methylpiperidin-3-yl)methyl)methanesulfonamide] | 10 to 1000 | 500 to 5000 | – | – | –
CC1(NS(C)(=O)=O)CCCN(c2cc(-c3cnc4ccc(C(F)F)nn34)ncn2)C1 (stereo not shown) [II-445, N-(1-(6-(6-(Difluoromethyl)imidazo[1,2-b]pyridazin-3-yl)pyrimidin-4-yl)-3-methylpiperidin-3-yl)methanesulfonamide] | 10 to 1000 | > 5000 | – | – | –
FC(F)c1ccc2ncc(-c3ccnc(N4CCOCC4)c3)n2n1 [II-76, 4-(4-(6-(Difluoromethyl)imidazo[1,2-b]pyridazin-3-yl)pyridin-2-yl)morpholine] | 10 to 1000 | > 5000 | – | – | –
FC(F)(F)c1cn2c(-c3nccc(N4CCC(c5c[nH]nc5C5CC5)C4)n3)cnc2cn1 (stereo not shown) [IV-576, 3-(4-(3-(3-Cyclopropyl-1H-pyrazol-4-yl)pyrrolidin-1-yl)pyrimidin-2-yl)-6-(trifluoromethyl)imidazo[1,2-a]pyrazine] | – | – | 10 to 100 | 500 to 5000 | –
CC1CN(c2nccc(-c3cnc4cnc(Br)cn34)n2)C(C)C(c2cn[nH]c2)N1 (single isomer, unassigned) [IV-403, 6-Bromo-3-(2-(2,5-dimethyl-3-(1H-pyrazol-4-yl)piperazin-1-yl)pyrimidin-4-yl)imidazo[1,2-a]pyrazine] | – | – | < 10 | < 500 | –
CC1(C)COCCN1c1cc(-c2cnc3ccc(C(F)F)nn23)ncn1 [II-402, 4-(6-(6-(Difluoromethyl)imidazo[1,2-b]pyridazin-3-yl)pyrimidin-4-yl)-3,3-dimethylmorpholine] | 10 to 1000 | > 5000 | – | – | –
CS(=O)(=O)NCC1CCCN(c2cc(-c3cnc4ccc(C(F)F)nn34)cc(N3CCNCC3)n2)C1 (stereo not shown) [II-96, N-((1-(4-(6-(Difluoromethyl)imidazo[1,2-b]pyridazin-3-yl)-6-(piperazin-1-yl)pyridin-2-yl)piperidin-3-yl)methyl)methanesulfonamide] | < 10 | 500 to 5000 | – | – | –
CS(=O)(=O)NC[C@@H]1CN(c2cc(-c3cnn4cc(F)c(C(F)F)nc34)ncn2)CCO1 [III-10, N-[[(2S)-4-[6-[5-(Difluoromethyl)-6-fluoro-pyrazolo[1,5-a]pyrimidin-3-yl]pyrimidin-4-yl]morpholin-2-yl]methyl]methanesulfonamide] | – | – | – | – | Ki (GCN2 kinase; compounds of Formula III, 4 nM GCN2 kinase): < 10 nM; IC50 ([1]; compounds of Formula III, U2OS cells, 10 μM borrelidin, 1 h, read-out: GCN2 Biomarker (IC50)): < 500 nM
CS(=O)(=O)NCCC1CCCN(c2ccnc(-c3cnc4cnc(C(F)F)cn34)n2)C1 (stereo not shown) [IV-43, N-(2-(1-(2-(6-(Difluoromethyl)imidazo[1,2-a]pyrazin-3-yl)pyrimidin-4-yl)piperidin-3-yl)ethyl)methanesulfonamide] | – | – | 100 to 1000 | > 5000 | –
CCC1C(CNS(C)(=O)=O)CCCN1c1cc(-c2cnc3ccc(C(F)F)nn23)ncn1 (single isomer, unassigned) [II-417] | 10 to 1000 | 500 to 5000 | – | – | –
Clc1cn2c(-c3nccc(N4CCNC(c5c[nH]cn5)C4)n3)cnc2cn1 (stereo not shown) [IV-347, 3-(4-(3-(1H-Imidazol-4-yl)piperazin-1-yl)pyrimidin-2-yl)-6-chloroimidazo[1,2-a]pyrazine] | – | – | 100 to 1000 | > 5000 | –
Cc1n[nH]cc1C1CCCN(c2ccnc(-c3cnc4cnc(C(F)F)cn34)n2)C1 (stereo not shown) [IV-97, 6-(Difluoromethyl)-3-(4-(3-(3-methyl-1H-pyrazol-4-yl)piperidin-1-yl)pyrimidin-2-yl)imidazo[1,2-a]pyrazine] | – | – | 10 to 100 | > 5000 | –
CN(CC1CCCN(c2cc(-c3cnc4ccc(C(F)F)nn34)ncn2)C1)S(C)(=O)=O (stereo not shown) [II-310, N-((1-(6-(6-(Difluoromethyl)imidazo[1,2-b]pyridazin-3-yl)pyrimidin-4-yl)piperidin-3-yl)methyl)-N-methylmethanesulfonamide] | 10 to 1000 | 500 to 5000 | – | – | –
CC1CN(c2ccnc(-c3cnc4sc(C(F)(F)F)cn34)n2)C(C)C(c2cn[nH]c2)N1 (stereo not shown) [Compound V-13, 5-[4-[2,5-Dimethyl-3-(1H-pyrazol-4-yl)piperazin-1-yl]pyrimidin-2-yl]-2-(trifluoromethyl)imidazo[2,1-b]thiazole] | – | – | – | – | Ki (GCN2 kinase; compounds of Formula V, 4 nM GCN2 kinase): < 10 nM; IC50 ([1]; compounds of Formula V, U2OS cells, 10 μM borrelidin, 1 h, read-out: GCN2 Biomarker (IC50)): < 500 nM
CC1CC(C(N)=O)C(C)N(c2cc(-c3cnc4ccc(C(F)(F)F)nn34)ncn2)C1 (single isomer, unassigned) [II-717, 2,5-Dimethyl-1-[6-[6-(trifluoromethyl)imidazo[1,2-b]pyridazin-3-yl]pyrimidin-4-yl]piperidine-3-carboxamide] | < 10 | < 500 | – | – | –
CS(=N)(=O)CCC1CCCN(c2cc(-c3cnc4ccc(C(F)F)nn34)ccn2)C1 (stereo not shown) [II-104, (2-(1-(4-(6-(Difluoromethyl)imidazo[1,2-b]pyridazin-3-yl)pyridin-2-yl)piperidin-3-yl)ethyl)(imino)(methyl)-λ^6-sulfanone] | 10 to 1000 | > 5000 | – | – | –
CC(C)(C)OC(=O)N1CCC2CCN(c3ccnc(-c4cnc5cnc(C(F)F)cn45)n3)CC21 (stereo not shown) [IV-132, tert-Butyl 6-(2-(6-(difluoromethyl)imidazo[1,2-a]pyrazin-3-yl)pyrimidin-4-yl)octahydro-1H-pyrrolo[2,3-c]pyridine-1-carboxylate] | – | – | 100 to 1000 | > 5000 | –
COCC(=O)N1CCN(c2cc(-c3cnc4ccc(C(F)F)nn34)ccn2)CC1 [II-170, 1-(4-(4-(6-(Difluoromethyl)imidazo[12-b]pyridazin-3-yl)pyridin-2-yl)piperazin-1-yl)-2-methoxyethanone] | 10 to 1000 | 500 to 5000 | – | – | –
FC(F)c1cn2c(-c3nsc(N4CCOC(c5cn[nH]c5)C4)n3)cnc2cn1 (stereo not shown) [IV-702, 4-(3-(6-(difluoromethyl)imidazo[1,2-a]pyrazin-3-yl)-1,2,4-thiadiazol-5-yl)-2-(1H-pyrazol-4-yl)morpholine] | – | – | 100 to 1000 | > 5000 | –
